According to patent US8889874B2, “Imidazolone-chalcone derivatives as potential anticancer agent and process for the preparation thereof” (Council of Scientific and Industrial Research, priority 2010, dated 2014):
Read-outs that look alike come from different tables or passages of the source.

Assays:
Type in all cases: cell-based, human
[1] = test system: Breast cancer cell lines; experiment: NCI anticancer screen, SRB assay, panel summary; settings: Homo sapiens
Experimental: (§1) Some of biological activity studies were carried out at the National Cancer Institute (NCI), Maryland, USA.
(§2) The compounds were evaluated for anticancer activity against fifty three human cancer cells derived from nine cancer types (leukemia cell line, non-small-cell lung cell line, colon cell line, CNS cell line, melanoma cell line, ovarian cell line, prostate cell line, and breast cancer cell line) as shown in Table 1. For each compound, dose response curves for each cell line were measured at a minimum of five concentrations at 10 fold dilutions. A protocol of 48 h continuous drug exposure was used and a sulforhodamine B (SRB) protein assay was used to estimate cell viability or growth.

[2] = test system: Prostate cancer cell lines; experiment: NCI anticancer screen, SRB assay, panel summary
Experimental: as §1, §2

[3] = test system: Non-small cell lung cancer cell lines; experiment: NCI anticancer screen, SRB assay, panel summary; settings: Homo sapiens
Experimental: as §1, §2

[4] = test system: Colon cancer cell lines; experiment: NCI anticancer screen, SRB assay, panel summary; settings: for GI50: Homo sapiens
Experimental: as §1, §2

[5] = test system: Melanoma cancer cell lines; experiment: NCI anticancer screen, SRB assay, panel summary; settings: for GI50: Homo sapiens
Experimental: as §1, §2

[6] = test system: CNS cancer cell lines; experiment: NCI anticancer screen, SRB assay, panel summary; settings: for GI50: Homo sapiens
Experimental: as §1, §2

[7] = test system: Renal cancer cell lines; experiment: NCI anticancer screen, SRB assay, panel summary; settings: Homo sapiens
Experimental: as §1, §2

[8] = test system: Leukemia cancer cell lines; experiment: NCI anticancer screen, SRB assay, panel summary; settings: Homo sapiens
Experimental: as §1, §2

[9] = test system: Ovarian cancer cell lines; experiment: NCI anticancer screen, SRB assay, panel summary; settings: Homo sapiens
Experimental: as §1, §2

[10] = test system: SF-539 (CNS); experiment: NCI anticancer screen, SRB assay, 48 h; settings: Homo sapiens
Experimental: as §1, §2

[11] = test system: TD-47D (breast); experiment: NCI anticancer screen, SRB assay, 48 h; settings: Homo sapiens
Experimental: as §1, §2

[12] = test system: COLO 205 (colon); experiment: NCI anticancer screen, SRB assay, 48 h; settings: Homo sapiens, COLO 205
Experimental: as §1, §2

[13] = test system: NCI-H460 (non-small cell lung); experiment: NCI anticancer screen, SRB assay, 48 h; settings: Homo sapiens
Experimental: as §1, §2

[14] = test system: MDA-MB-231/ATCC (breast); experiment: NCI anticancer screen, SRB assay, 48 h; settings: Homo sapiens
Experimental: as §1, §2

[15] = test system: KM12 (colon); experiment: NCI anticancer screen, SRB assay, 48 h; settings: Homo sapiens
Experimental: as §1, §2

[16] = test system: A498 (renal); experiment: NCI anticancer screen, SRB assay, 48 h; settings: Homo sapiens
Experimental: as §1, §2

[17] = test system: NCI-H23 (non-small cell lung); experiment: NCI anticancer screen, SRB assay, 48 h; settings: Homo sapiens
Experimental: as §1, §2

[18] = test system: A549/ATCC (non-small cell lung); experiment: NCI anticancer screen, SRB assay, 48 h; settings: Homo sapiens
Experimental: as §1, §2

[19] = test system: SK-MEL-28 (melanoma); experiment: NCI anticancer screen, SRB assay, 48 h; settings: Homo sapiens
Experimental: as §1, §2

[20] = test system: SNB-75 (CNS); experiment: NCI anticancer screen, SRB assay, 48 h; settings: Homo sapiens
Experimental: as §1, §2

[21] = test system: BT-549 (breast); experiment: NCI anticancer screen, SRB assay, 48 h; settings: Homo sapiens
Experimental: as §1, §2

[22] = test system: ACHN (renal); experiment: NCI anticancer screen, SRB assay, 48 h; settings: Homo sapiens
Experimental: as §1, §2

[23] = test system: M14 (melanoma); experiment: NCI anticancer screen, SRB assay, 48 h; settings: Homo sapiens
Experimental: as §1, §2

[24] = test system: HCC-2998 (colon); experiment: NCI anticancer screen, SRB assay, 48 h; settings: Homo sapiens
Experimental: as §1, §2

[25] = test system: HT29 (colon); experiment: NCI anticancer screen, SRB assay, 48 h; settings: Homo sapiens
Experimental: as §1, §2

[26] = test system: SF-295 (CNS); experiment: NCI anticancer screen, SRB assay, 48 h; settings: Homo sapiens
Experimental: as §1, §2

[27] = test system: LOX IMVI (melanoma); experiment: NCI anticancer screen, SRB assay, 48 h; settings: Homo sapiens
Experimental: as §1, §2

[28] = test system: SK-MEL-2 (melanoma); experiment: NCI anticancer screen, SRB assay, 48 h; settings: Homo sapiens
Experimental: as §1, §2

[29] = test system: PC-3 (prostate); experiment: NCI anticancer screen, SRB assay, 48 h; settings: Homo sapiens
Experimental: as §1, §2

[30] = test system: OVCAR-3 (ovarian); experiment: NCI anticancer screen, SRB assay, 48 h; settings: Homo sapiens
Experimental: as §1, §2

[31] = test system: SN12C (renal); experiment: NCI anticancer screen, SRB assay, 48 h; settings: Homo sapiens, SN12C
Experimental: as §1, §2

[32] = 48 h exposure, SRB, read-out: GI50
[33] = read-out: pGI50 (-log of molar concentration causing 50% inhibition of net cell growth) (converted)

Structure (SMILES): COc1cc(/C=C/C(=O)c2cccc(-n3cc(-c4cc(OC)c(OC)c(OC)c4)[nH]c3=O)c2)cc(OC)c1OC [5d, 4-(3,4,5-trimethoxyphenyl)-1-3-[(E)-3-(3,4,5-trimethoxyphenyl)-2-propenoyl]phenyl-2,3-dihydro-1H-2-imidazolone]
- GI50 ([1]; Breast panel, log of concentration in mol/L causing 50% inhibition of net cell growth, read-out: mean graph midpoint (MG_MID) of Log10 GI50 (converted)): 3.98 µM
- LC50 ([1]; Breast panel, log of concentration leading to 50% net cell death, read-out: mean graph midpoint (MG_MID) of Log10 LC50 (converted)): 45.7 µM
- GI50 ([1]; five breast cancer cell lines, exposure at least 48 hrs, read-out: GI50, range over the panel): 0.47 to 4.19 µM
- GI50 ([2]; Homo sapiens, log of concentration in mol/L causing 50% inhibition of net cell growth, read-out: mean graph midpoint (MG_MID) of Log10 GI50 (converted)): 2630 nM
- LC50 ([2]; Homo sapiens, log of concentration leading to 50% net cell death, read-out: mean graph midpoint (MG_MID) of Log10 LC50 (converted)): ≥ 100 µM
- mean graph midpoint (MG_MID) of Log10 TGI ([2]; log of concentration resulting in total inhibition of net cell growth): 4.73
- GI50 ([3]; Non-small cell lung panel, log of concentration in mol/L causing 50% inhibition of net cell growth, read-out: mean graph midpoint (MG_MID) of Log10 GI50 (converted)): 13.8 µM
- GI50 ([3]; nine non-small cell lung cancer cell lines, exposure at least 48 hrs, read-out: GI50, range over the panel): 1.05 to 14.4 µM
- mean graph midpoint (MG_MID) of Log10 LC50 ([4]; Colon panel, log of concentration leading to 50% net cell death): 4.19
- GI50 ([4]; Colon panel, log of concentration in mol/L causing 50% inhibition of net cell growth, read-out: mean graph midpoint (MG_MID) of Log10 GI50 (converted)): 1910 nM
- GI50 ([4]; seven colon cancer cell lines, exposure at least 48 hrs, read-out: GI50, range over the panel): 740 to 1920 nM
- GI50 ([5]; Melanoma panel, log of concentration in mol/L causing 50% inhibition of net cell growth, read-out: mean graph midpoint (MG_MID) of Log10 GI50 (converted)): 2040 nM
- GI50 ([5]; nine melanoma cancer cell lines, exposure at least 48 hrs, read-out: GI50, range over the panel): 1230 to 3020 nM
- mean graph midpoint (MG_MID) of Log10 LC50 ([5]; Melanoma panel, log of concentration leading to 50% net cell death): 4.67
- mean graph midpoint (MG_MID) of Log10 LC50 ([6]; CNS panel, log of concentration leading to 50% net cell death): 4.29
- GI50 ([6]; CNS panel, log of concentration in mol/L causing 50% inhibition of net cell growth, read-out: mean graph midpoint (MG_MID) of Log10 GI50 (converted)): 3.09 µM
- GI50 ([6]; six CNS cancer cell lines, exposure at least 48 hrs, read-out: GI50, range over the panel): 1.23 to 4.96 µM
- GI50 ([7]; Renal panel, log of concentration in mol/L causing 50% inhibition of net cell growth, read-out: mean graph midpoint (MG_MID) of Log10 GI50 (converted)): 2630 nM
- LC50 ([7]; Renal panel, log of concentration leading to 50% net cell death, read-out: mean graph midpoint (MG_MID) of Log10 LC50 (converted)): 27.5 µM
- GI50 ([7]; eight renal cancer cell lines, exposure at least 48 hrs, read-out: GI50, range over the panel): 960 to 20300 nM
- GI50 ([8]; Leukemia panel, log of concentration in mol/L causing 50% inhibition of net cell growth, read-out: mean graph midpoint (MG_MID) of Log10 GI50 (converted)): 380 nM
- LC50 ([8]; Leukemia panel, log of concentration leading to 50% net cell death, read-out: mean graph midpoint (MG_MID) of Log10 LC50 (converted)): ≥ 100 µM
- GI50 ([8]; two leukemia cancer cell lines (RPMI-8226 and K-562), exposure at least 48 hrs, read-out: GI50, range over the panel): 230 to 590 nM
- GI50 ([9]; Ovarian panel, log of concentration in mol/L causing 50% inhibition of net cell growth, read-out: mean graph midpoint (MG_MID) of Log10 GI50 (converted)): 2950 nM
- LC50 ([9]; Ovarian panel, log of concentration leading to 50% net cell death, read-out: mean graph midpoint (MG_MID) of Log10 LC50 (converted)): 75.9 µM
- GI50 ([9]; six ovarian cancer cell lines, exposure at least 48 hrs, read-out: GI50, range over the panel): 1480 to 5120 nM
- GI50 [10, 32]: 3.12 µM
- GI50 [10, 33]: 3.09 µM
- GI50 [11, 32]: 3.08 µM
- GI50 [11, 33]: 3.09 µM
- GI50 ([12]; COLO205, read-out: pGI50 (-log of molar concentration causing 50% inhibition of net cell growth) (converted)): 1510 nM
- GI50 [12, 32]: 1520 nM
- GI50 [13, 32]: 1730 nM
- GI50 [13, 33]: 1740 nM
- GI50 [14, 32]: 4.19 µM
- GI50 [14, 33]: 4.17 µM
- GI50 [15, 32]: 1120 nM
- GI50 [15, 33]: 1120 nM
- GI50 [16, 32]: 20.3 µM
- GI50 [16, 33]: 20.4 µM
- GI50 [17, 32]: 2000 nM
- GI50 [17, 33]: 2000 nM
- GI50 [18, 32]: 3.03 µM
- GI50 [18, 33]: 3.02 µM
- GI50 [19, 32]: 1610 nM
- GI50 [19, 33]: 1620 nM
- GI50 [20, 32]: 5.13 µM
- GI50 [20, 33]: 5.13 µM
- GI50 [21, 32]: 1520 nM
- GI50 [21, 33]: 1510 nM
- GI50 [22, 32]: 1740 nM
- GI50 [22, 33]: 1740 nM
- GI50 [23, 32]: 2120 nM
- GI50 [23, 33]: 2140 nM
- GI50 [24, 32]: 1920 nM
- GI50 [24, 33]: 1910 nM
- GI50 ([25]; HT-29, 48 h exposure, SRB, read-out: GI50): 1700 nM
- GI50 ([25]; HT-29, read-out: pGI50 (-log of molar concentration causing 50% inhibition of net cell growth) (converted)): 1700 nM
- GI50 [26, 32]: 4.96 µM
- GI50 [26, 33]: 5.01 µM
- GI50 [27, 32]: 1230 nM
- GI50 [27, 33]: 1230 nM
- GI50 [28, 32]: 3.02 µM
- GI50 [28, 33]: 3.02 µM
- GI50 ([29]; PC-3, read-out: pGI50 (-log of molar concentration causing 50% inhibition of net cell growth) (converted)): 2630 nM
- GI50 ([29]; one prostate cancer cell line (PC-3), exposure at least 48 hrs, read-out: GI50): 2630 nM
- GI50 [30, 32]: 1480 nM
- GI50 [30, 33]: 1480 nM
- GI50 ([31]; SN 12C, read-out: pGI50 (-log of molar concentration causing 50% inhibition of net cell growth) (converted)): 2750 nM
- GI50 [31, 32]: 2750 nM
